Assay results as given in PubChem BioAssay AID624452 (Sanford-Burnham Center for Chemical Genomics, 2012).

Test system: human liver microsomes, compound remaining, LC-MS
Test: metabolic stability in human liver microsomes, ADME assay, biochemical, with and without NADPH, LC-MS, set 2 (AID 624452);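 note: compound left measured after 60 min microsomal incubation at 37 °C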
Details: at 1 µM; for percent remaining without NADPH: measured here: stability without NADPH control

| SMILES | percent remaining with NADPH [%] | percent remaining without NADPH [%] |
| --- | --- | --- |
| O=c1oc2c(O)c(O)cc3c(=O)oc4c(O)c(O)cc1c4c23 | 73.1 | 93.1 |
| O=C(O)c1ccccc1OCc1ccccc1Br | 67.3 | 70 |
| NC(=O)C1CCN(c2nc(-c3ccc(Br)cc3)cs2)CC1 | 56.9 | 62 |
| COc1ccc(C2CC(c3ccccc3)=NN2c2ccc(S(N)(=O)=O)cc2)cc1 (centres undefined) | 59.6 | 70 |
| CCCn1ncc(CN2CCCC(C(=O)c3cccc(OC(C)C)c3)C2)c1C (centres undefined) | 1.55 | 79.4 |
| COc1ccc(CSc2nc(C)cc(=O)[nH]2)cc1 | 41.4 | 68.6 |
| O=C1C2CC=CCC2C(=O)N1c1n[nH]c(-c2ccccc2)n1 (centres undefined) | 66.9 | 71 |
| CCc1nnc(NC(=O)c2ccc(NS(=O)(=O)c3ccccc3)cc2)s1 | 69.2 | 76.8 |
| COC(=O)c1ccccc1NC(=O)c1ccc(F)cc1 | 53.7 | 100 |
| Cc1ccc(NS(=O)(=O)c2ccc3c(c2)CCC(=O)N3)cc1C | 6.36 | 66.3 |
| CC[C@H]1CN2CCc3cc(OC)c(OC)cc3[C@@H]2C[C@@H]1C[C@H]1NCCc2cc(OC)c(OC)cc21 | 45.4 | 89.3 |
| Oc1cc(O)cc(/C=C/c2ccc(O)c(O)c2)c1 | 45.9 | 87.6 |
| Cn1cnc([N+](=O)[O-])c1Sc1ncnc2nc[nH]c12 | 66.6 | 66.4 |
| Cc1cc(C)nc(-n2nc(C)c(Sc3ccc(F)cc3)c2N)n1 | 13.4 | 79.4 |
| COc1ccc(Sc2ccc(NC(=O)c3ccccc3Cl)cc2C#N)cc1 | 27.3 | 64.4 |
| Cc1ccc(S(=O)(=O)n2c(N)nc3ccccc32)cc1 | 21 | 79.3 |
| COc1nc(-c2ccccc2)nnc1-c1ccccc1 | 8.41 | 59.3 |
| CCN1CCN(c2nc3ccccc3nc2C(C#N)C(=O)OC2CCCCC2)CC1 (centres undefined) | 14.2 | 80.8 |
| COc1ccc(N(C(=O)CCl)C(C(=O)NCCc2ccccc2)c2cccs2)cc1Cl (centres undefined) | 1.54 | 39.7 |
| Cn1nnnc1Sc1ncnc2scc(-c3ccccc3)c12 | 28.1 | 67.5 |
| Cc1cc2c(s1)c1cnn(Cc3ccccc3F)c(=O)c1n2C | 0.06 | 64.4 |
| O=C(CSc1cccc2cccnc12)N1CCCC1 | 47.2 | 78.5 |
| Cc1ccc(-n2c(N)c(C#N)c(-c3ccccc3)c(C#N)c2=O)cc1 | 64 | 78.9 |
| Cc1cc(C)n(-c2nc(NCCCO)c3c4c(sc3n2)CCCC4)n1 | 0.45 | 74 |
| COc1ccc(S(=O)(=O)n2nc(OC(=O)c3ccccc3)cc2N)cc1 | 52.9 | 65.4 |
| O=C(COC(=O)C12CC3CC(CC(C3)C1)C2)NCc1ccco1 | 84.8 | 100 |

| SMILES | percent remaining with NADPH [%] | percent remaining without NADPH [%] |
| --- | --- | --- |
| Cc1ccccc1N1CCN(c2ncnc3c2cnn3Cc2ccc(Cl)cc2)CC1 | 30.9 | 58 |
| O=[N+]([O-])c1ccc(CN2CCOCCOCCN(Cc3ccc([N+](=O)[O-])cc3)CCOCC2)cc1 | 0.31 | 72.8 |
| Cc1ccnc(NC(=O)CCCOc2cc(=O)n(C)c3ccccc23)c1 | 0.99 | 73.4 |
| Brc1cc2c(cc1C1Nc3ccccc3C3C=CCC31)OCO2 (centres undefined) | 28.7 | 65.5 |
| Cc1cc(-c2nnc3n2CCCCC3)c(C)n1-c1ccccc1 | 25.2 | 74.8 |
| Cc1cc(C(=O)CN2C(=O)CCC2=O)c(C)n1Cc1ccccc1 | 34.5 | 72.6 |
| CCc1oc2ccccc2c1C(=O)c1cc(Br)c(O)c(Br)c1 | 20.3 | 75.6 |
| O=C1CCCC2=C1C1(CCCC1)N=C(Nc1nc3ccccc3o1)N2 | 11.2 | 78.1 |
| O=c1[nH]c(SCc2ccc(Cl)cc2)nc2c1CCC2 | 12.6 | 78.5 |
| Cc1ccc(NC(=O)CCC(=O)N/N=C/c2ccc([N+](=O)[O-])o2)cc1C | 37.5 | 72.6 |
| CCCc1cc(C(=O)N(C2CCCCC2)C2CCCCC2)no1 | 5.27 | 57.6 |
| O=C(O)c1cccnc1SCCc1ccccc1 | 61.4 | 74.9 |
| COc1ccc(CNCc2cccc3ccccc23)cc1 | 0.21 | 70.7 |
| CC(=O)c1ccc(N2CCN(S(=O)(=O)c3ccc4c(c3)CC(=O)N4)CC2)cc1 | 49 | 69.8 |
| COc1ccc(C2c3c(ncn(CCN4CCOCC4)c3=N)Oc3ccc4ccccc4c32)cc1OC (centres undefined) | 7.15 | 87.2 |
| C/C=C/Cn1c(SCCCc2ccccc2)nc2c1c(=O)[nH]c(=O)n2C | 1.64 | 69.3 |
| O=C(COc1ccccc1Br)NCCc1nc2ccccc2[nH]1 | 0.04 | 79.6 |
| CC(C)C(=O)NC(c1ccco1)c1ccc2cccnc2c1O (centres undefined) | 49.2 | 76.4 |
| O=C1NCCCc2c1oc1ccc(O)cc21 | 62.1 | 63 |
| CN(C)c1oc(-c2ccc(OCc3ccc(Cl)cc3)cc2)nc1C#N | 35.5 | 67.2 |
| Cc1cccc(-n2cnc3cc(C(=O)N4CCCCC4)ccc32)c1 | 37.9 | 70 |
| Cc1ccc(C)c(NS(=O)(=O)c2cc(C(=O)Nc3ccccc3-c3ccccc3)ccc2Cl)c1 | 2.07 | 75.9 |
| Cc1nc(SCc2nc3ccccc3[nH]2)c2oc3ccccc3c2n1 | 0.22 | 70.5 |
| CCOC(=O)C(C)Oc1cccc2c(=O)n(CC(=O)Nc3ccc4c(c3)OCCO4)ccc12 (centres undefined) | 68.7 | 75.6 |
| COc1ccc(OC)c(-c2nnc3n2N=C(c2ccc(OC)c(OC)c2)CS3)c1 | 5.35 | 79.3 |
| Cc1ccc(N2CCN(S(=O)(=O)N3CCCCC3)CC2)c(C)c1 | 0.03 | 73.8 |

| SMILES | percent remaining with NADPH [%] | percent remaining without NADPH [%] |
| --- | --- | --- |
| c1ccc(CC2CCN(c3ncnc4sccc34)CC2)cc1 | 9.66 | 54.9 |
| CN(C)c1nc(N)nc(CSc2nnnn2-c2cccc3ccccc23)n1 | 0.13 | 77.6 |
| c1ccc2c(Nc3nnc(-c4ccncc4)s3)cccc2c1 | 8.76 | 72.1 |
| CCCOc1ccc(-c2nc(OC)c3ccccc3n2)cc1 | 48.3 | 81.5 |
| Cc1ccc(C(=O)n2c3ccccc3c3ccccc32)cc1 | 24 | 48.7 |
| CS(=O)(=O)c1ccc(C(=O)OCC(=O)NC23CC4CC(CC(C4)C2)C3)cc1[N+](=O)[O-] | 5.75 | 81 |
| CCOc1ccc(NC(=S)N2CCC(C(O)(c3ccccc3)c3ccccc3)CC2)cc1 | 22.7 | 62 |
| O=C(O)CCC(NS(=O)(=O)c1ccc(-c2ccccc2)cc1)C(=O)O (centres undefined) | 75.8 | 74.2 |
| CC1CCCN(C(C(=O)Nc2ccc3c(c2)OCCO3)c2ccccc2)C1 (centres undefined) | 4.43 | 79.7 |
| Cc1ccc(S(=O)(=O)NCc2ccc(C(=O)NCCN(Cc3ccccc3)C(C)C)cc2)cc1 | 0.01 | 80.3 |
| C=CCn1c(SCC(=O)c2ccc(O)c(O)c2)nnc1-c1ccccc1OC | 30.6 | 65 |
| Cc1ccc(C)c(OCCn2cc(C(=O)O)c3ccccc32)c1 | 35.8 | 66.7 |
| c1ccc(-c2nnc(N3CCOCC3)nc2-c2ccccc2)cc1 | 31.1 | 79.8 |
| CCOc1ccc(-c2nc(-c3ccncc3)no2)cc1OCC | 25.1 | 70.3 |
| CCCC(=O)Nc1cccc(NC(=O)c2ccccc2Br)c1 | 46 | 71.2 |
| O=C(O)c1ccc(N2C(=O)/C(=C/c3ccc(-c4ccc([N+](=O)[O-])cc4)o3)C=C2c2ccccc2)cc1 | 67.9 | 74.3 |
| COc1ccc(S(=O)(=O)N2CCN(S(=O)(=O)c3ccc4c(c3)OCCO4)CC2)cc1 | 0.64 | 55.8 |
| Cc1ccc(S(=O)(=O)C(c2ccccc2)c2c(C)noc2C)cc1 (centres undefined) | 0.08 | 69.4 |
| N#Cc1ccccc1CSc1nc2ncc(Br)cc2[nH]1 | 29.7 | 79.3 |
| O=S1(=O)Nc2c(ccc3cccnc23)-c2ccccc21 | 64.4 | 68 |
| CSc1nc(-c2ccc(C)cc2)nc(C(Cl)Cl)n1 | 10.8 | 42.1 |
| N#C/C(=C\c1ccc([N+](=O)[O-])o1)c1nc2ccccc2[nH]1 | 0.29 | 52.4 |
| O=C(c1ccccn1)N(Cc1cccs1)C1(C(=O)NC2CCCCC2)CCCCC1 | 0.01 | 70.6 |
| COc1ccccc1N(/N=C1\Sc2ccccc2C1=O)C(C)=O | 0.32 | 68.5 |
| O=S(=O)(NC1CCCCC1N1CCOCC1)c1ccc(Cl)cc1 (centres undefined) | 0.11 | 78.2 |
